Assay results: US10945995B2, “Compositions and methods for channelopathy disorders-targeting fluid movement across membranes” (DEHA, LLC, priority 2017, dated 2021)

Assays:
AQP-11 = molecular target: T1, AQP-11 (Homo sapiens, UniProt Q8NBQ7); experiment: Kinetic screening assay, cells overexpressing AQP-11; type: cell-based
T1 construct: expressed in transfected cells
T1 sequence (Q8NBQ7 1-271): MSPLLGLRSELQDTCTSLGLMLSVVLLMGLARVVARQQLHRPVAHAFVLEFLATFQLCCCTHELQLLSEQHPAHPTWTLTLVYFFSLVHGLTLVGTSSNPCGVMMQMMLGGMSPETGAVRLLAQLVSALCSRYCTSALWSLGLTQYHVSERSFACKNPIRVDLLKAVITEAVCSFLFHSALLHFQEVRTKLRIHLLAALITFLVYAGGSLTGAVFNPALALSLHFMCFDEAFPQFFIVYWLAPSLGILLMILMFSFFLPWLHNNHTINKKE

AQP-2 = molecular target: T2, AQP-2 (Homo sapiens, UniProt P41181); experiment: Kinetic screening assay, cells overexpressing AQP-2; type: cell-based
T2 construct: expressed in transfected cells
T2 sequence (P41181 1-271): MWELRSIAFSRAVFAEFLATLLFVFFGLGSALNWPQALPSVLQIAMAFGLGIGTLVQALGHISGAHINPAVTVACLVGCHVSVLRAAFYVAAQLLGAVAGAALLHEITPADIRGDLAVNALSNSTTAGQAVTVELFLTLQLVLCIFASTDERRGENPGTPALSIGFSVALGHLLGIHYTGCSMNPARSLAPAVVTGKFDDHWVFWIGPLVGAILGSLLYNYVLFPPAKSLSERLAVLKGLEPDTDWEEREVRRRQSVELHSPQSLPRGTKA
From the text: Effects of candidate AQP-4 inhibitors on cell swelling in vitro. Kinetic screening assay: In order to assess the effects of the resulting 50 compounds selected from in silico screening efforts on cell swelling, a calcein-fluorescence assay that measures plasma membrane water permeability was used. Alvarez-Leefmans et al. established a technique to estimate changes in cell volume as a function of changes in concentration using a calcein-AM, a non-fluorescent and membrane-permeant dye.^53 After entering the cell, calcein-AM is converted to calcein by removal of the acetoxymethyl group (AM) by intracellular esterases. […] The fluorescence signal is calibrated by brief exposures of the calcein-loaded cells to, for example, 15% hypotonic and 15% hypertonic solutions and the average signal intensity from the cell is detected. […] The test compounds were then added (4-9 μM) and the fluorescence was measured using a Biotek plate reader (excitation 490 nm and emission 515 nm). Relative fluorescence intensity (RfU) was calculated as the fluorescence intensity of each well divided by the mean fluorescence intensity of cells treated with DMSO (control). […]
AQP-2 DHA-35. Using the kinetic screening assay described hereinabove, cells overexpressing AQP-2 were screened with test compounds of interest and their fluorescence signal were evaluated. […]

AQP-6 = molecular target: T3, AQP-6 (Homo sapiens, UniProt Q13520); experiment: Kinetic screening assay, cells overexpressing AQP-6; type: cell-based
T3 construct: expressed in transfected cells
T3 sequence (Q13520 1-282): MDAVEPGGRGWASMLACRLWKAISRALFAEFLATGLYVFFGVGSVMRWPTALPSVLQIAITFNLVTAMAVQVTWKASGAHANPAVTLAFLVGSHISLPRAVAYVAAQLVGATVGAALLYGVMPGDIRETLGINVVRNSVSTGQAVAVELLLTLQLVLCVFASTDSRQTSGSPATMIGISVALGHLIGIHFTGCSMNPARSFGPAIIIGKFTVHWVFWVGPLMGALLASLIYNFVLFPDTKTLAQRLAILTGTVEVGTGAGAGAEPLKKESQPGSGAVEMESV

AQP-4 [1] = conditions: rat model of epilepsy; cited from earlier work
[2] = system: rat traumatic brain injury model; conditions: cited from earlier work
AQP-4 [3] = conditions: pre-treatment, mouse model of stroke; cited from earlier work

**Q.** For `C=CCn1nc(C(=O)N2CCCCCC2)c2c1CCC(NCCCN1CCCC1=O)C2` (stereo not shown) [DHA-6], which “AQP-11 activity, fluorescence signal” value (AQP-11) is on record?
**A.** modulators

**Q.** For `CSc1ccc(C(=O)NC(c2ccc3c(c2)CCO3)[C@H]2C[C@@H](O)C2)cc1` (stereo partly shown) [DHA-35], which “AQP-2 activity, fluorescence signal” value (AQP-2) is on record?
**A.** inhibitor

**Q.** For `COCC(C)n1c(CCCC(=O)N2CCC3(CC2)CNC(=O)C3)nc2cccnc21` (stereo not shown) [DHA-36], which “AQP-6 activity, fluorescence signal” value (AQP-6) is on record?
**A.** inhibitor

**Q.** For `CC(=O)Nc1nnc(S(N)(=O)=O)s1` [Acetazolamide, acetazolamide], which “AQP-4 inhibition in vivo” value (AQP-4 [1]) is on record?
**A.** inhibit AQP-4

**Q.** And the edema [2]?
**A.** reduce edema

**Q.** For `O=C(Nc1nncs1)c1cccnc1` [TGN-020, 2-(nicotinamide)-1,3,4-thiadiazole], which “edema and infarct size” value (AQP-4 [3]) is on record?
**A.** reduce edema and infarct size

**Q.** For `Cc1onc(-c2ccccc2)c1C(=O)NCc1nnc(SCc2ccccc2Cl)n1CC(C)C` [DHA-37], which “AQP-11 activity, fluorescence signal” value (AQP-11) is on record?
**A.** modulators
